Measured values taken from patent US5034212A, “Method of imaging using a radioactive glucosamine derivative” (Nihon Medi-Physics Co., Ltd., priority 1989, dated 1991).

What was measured:
brain = assay: Behavior in mouse: TLC of brain and blood homogenates after tail vein injection; type: in vivo, ddY strain male mice
Method: ^125 I-ABGA was injected into ddY strain male mice at the tail vein, and after a certain period of time, the mice were sacrificed. The blood was collected from the heart, and the brain was taken out. The blood and the brain were respectively admixed with 5% trichloroacetic acid (1 ml), homogenized and centrifuged at 3,000 rpm and at 0° C. for 10 minutes. The supernatant was analyzed by thin layer chromatography using a mixture of chloroform and methanol (7:3 by volume) as a developing solvent. The results are shown in FIGS. 1A and 1B of the accompanying drawings. In FIGS. 1A and 1B showing respectively the analytical results on the brain homogenate and the blood homogenate, the solid line, the dotted line and the solid-dot mixed line represent respectively the ones of 5 minutes, 60 minutes and 180 minutes after the administration.

[1] = Body distribution of ^125 I-ABGA in mouse; type: in vivo, ddY strain male mice; settings: i.v.
[2] = Body distribution of BGA in mouse; type: in vivo
hexokinase = assay: Phosphorylation with hexokinase / inhibition of glucose phosphorylation; type: biochemical
[3] = Stability in buffer of pH 5, 7 or 9 at 37° C., TLC analysis; type: physicochemical
Method: A solution of ^125 I-ABGA in dimethylsulfoxide was added to a buffer of pH 5, 7 or 9 and incubated at 37° C. for a certain period of time.

[4] = Octanol/phosphate buffer distribution ratio (lipophilic property); type: physicochemical
Method: To a mixture of octanol (3 ml) and phosphate buffer (PBS) (3 ml), ^125 I-ABGA as obtained in Example 2 was added, followed by stirring and allowing to stand. The radioactivity of each layer was measured, and the distribution ratio was determined. The results are shown in Table 1, from which it is understood that ^125 I-ABGA is lypophilic.

Swine liver esterase = assay: Enzymatic deesterification with swine liver esterase, TLC analysis; type: in vitro ADME; settings: pH 7.4, 37° C.; for Proportion of peak component ABGA / Proportion of peak component BGA / Proportion of peak component I^- / Proportion of peak component Others: esterase 100 U
Method: Swine liver esterase (100 U) was added to phosphate buffer (pH 7.4), and ^125 I-ABGA (50 kBq) was added thereto, followed by incubation at 37° C. for a certain period of time. The reaction mixture was sampled, and ethanol was added thereto, followed by centrifugation.

SMILES: CC(=O)OC[C@H]1OC(OC(C)=O)[C@H](NC(=O)c2cccc(I)c2)[C@@H](OC(C)=O)[C@@H]1OC(C)=O (stereo partly drawn) [ABGA, N-(m-iodobenzoyl)-1,3,4,6-tetra-O-acetyl-D-glucosamine]
- TLC peak of ABGA over time (brain; mouse brain, 5 to 180 minutes): decreases with the lapse of time
- TLC peaks in brain (brain; mouse brain, 5 minutes after i.v. administration): the peaks of ABGA and BGA appear in brain 5 minutes after the administration
- Transfer to brain and deesterification (brain; mouse, i.v.): transferred to brain at the initial stage of administration and thereafter deesterified, whereby it behaves as BGA
- Brain/blood ratio with lapse of time [1]: increase of the brain/blood ratio with the lapse of time
- Clearance from the blood [1]: rapid clearance from the blood
- Retention in the brain [1]: retention in the brain
- Uptake in the brain in comparison with BGA [1]: higher uptake in the brain

SMILES: O=C(N[C@H]1C(O)O[C@H](CO)[C@@H](O)[C@@H]1O)c1cccc(I)c1 (stereo partly drawn) [BGA, N-m-iodobenzoyl-D-glucosamine]
- Passage through the blood-brain barrier ([2]; in vivo): can hardly pass through the blood-brain barrier (BBB) in vivo
- Disappearance of radioactivity from brain ([2]; mouse): parallel to the blood clearance
- Stomach accumulation as index of deiodization / stability in body ([2]; mouse): low in stomach accumulation as the index of deiodization and thus stable in a body
- Inhibition to the ATP action (hexokinase): antagonistic inhibition to the ATP action
- Inhibition to the phosphorylation of glucose (hexokinase): non-antagonistic inhibition to the phosphorylation of glucose
- Phosphorylation with hexokinase (hexokinase): not phosphorylated with hexokinase

SMILES: CC(=O)OC[C@H]1OC(OC(C)=O)[C@H](NC(=O)c2cccc([125I])c2)[C@@H](OC(C)=O)[C@@H]1OC(C)=O (stereo partly drawn) [^125 I-ABGA, ^125 I-labeled N-(m-iodobenzoyl)-1,3,4,6-tetra-O-acetyl-D-glucosamine]
- Stability: peak component ABGA ([3]; 15 min, pH 5, 37° C.): 99.1
- Stability: peak component I^- ([3]; 15 min, pH 5, 37° C.): 0
- Stability: peak component Others ([3]; 15 min, pH 5, 37° C.): 0
- Stability: peak component ABGA ([3]; 15 min, pH 7, 37° C.): 99.9
- Stability: peak component I^- ([3]; 15 min, pH 7, 37° C.): 0
- Stability: peak component Others ([3]; 15 min, pH 7, 37° C.): 0
- Stability: peak component ABGA ([3]; 15 min, pH 9, 37° C.): 53.9
- Stability: peak component I^- ([3]; 15 min, pH 9, 37° C.): 10.2
- Stability: peak component Others ([3]; 15 min, pH 9, 37° C.): 31.5
- Stability: peak component ABGA ([3]; 60 min, pH 5, 37° C.): 98.5
- Stability: peak component I^- ([3]; 60 min, pH 5, 37° C.): 0
- Stability: peak component Others ([3]; 60 min, pH 5, 37° C.): 0
- Stability: peak component ABGA ([3]; 60 min, pH 7, 37° C.): 99.3
- Stability: peak component I^- ([3]; 60 min, pH 7, 37° C.): 0
- Stability: peak component Others ([3]; 60 min, pH 7, 37° C.): 0
- Stability: peak component ABGA ([3]; 60 min, pH 9, 37° C.): 25.5
- Stability: peak component I^- ([3]; 60 min, pH 9, 37° C.): 19.6
- Stability: peak component Others ([3]; 60 min, pH 9, 37° C.): 49.0
- Stability: peak component ABGA ([3]; 180 min, pH 5, 37° C.): 98.4
- Stability: peak component I^- ([3]; 180 min, pH 5, 37° C.): 0
- Stability: peak component Others ([3]; 180 min, pH 5, 37° C.): 0
- Stability: peak component ABGA ([3]; 180 min, pH 7, 37° C.): 97.8
- Stability: peak component I^- ([3]; 180 min, pH 7, 37° C.): 0.9
- Stability: peak component Others ([3]; 180 min, pH 7, 37° C.): 0
- Stability: peak component ABGA ([3]; 180 min, pH 9, 37° C.): 2.2
- Stability: peak component I^- ([3]; 180 min, pH 9, 37° C.): 31.1
- Stability: peak component Others ([3]; 180 min, pH 9, 37° C.): 57.5
- Stability at high pH ([3]; high pH (pH 9), 37° C.): hydrolyzed to BGA with deiodization at high pH
- Stability at other pH ([3]; pH 5 and 7, 37° C., up to 3 hours): stable (i.e. neither hydrolyzed nor deiodized) even after 3 hours at other pH
- Body distribution, Blood ([1]; 2 min): 5.16 ± 0.97 % dose/g organ
- Body distribution, Brain ([1]; 2 min): 0.53 ± 0.14 % dose/g organ
- Body distribution, Heart ([1]; 2 min): 4.88 ± 0.97 % dose/g organ
- Body distribution, Intestine ([1]; 2 min): 3.94 ± 1.19 % dose/g organ
- Body distribution, Kidney ([1]; 2 min): 14.87 ± 2.31 % dose/g organ
- Body distribution, Liver ([1]; 2 min): 15.32 ± 4.43 % dose/g organ
- Body distribution, Pancreas ([1]; 2 min): 4.54 ± 1.03 % dose/g organ
- Body distribution, Stomach ([1]; 2 min): 1.87 ± 0.68 % dose/g organ
- Body distribution, Blood ([1]; 5 min): 7.16 ± 0.13 % dose/g organ
- Body distribution, Brain ([1]; 5 min): 0.55 ± 0.11 % dose/g organ
- Body distribution, Heart ([1]; 5 min): 4.45 ± 0.52 % dose/g organ
- Body distribution, Intestine ([1]; 5 min): 4.58 ± 0.60 % dose/g organ
- Body distribution, Kidney ([1]; 5 min): 11.39 ± 3.08 % dose/g organ
- Body distribution, Liver ([1]; 5 min): 12.85 ± 1.71 % dose/g organ
- Body distribution, Pancreas ([1]; 5 min): 4.40 ± 0.28 % dose/g organ
- Body distribution, Stomach ([1]; 5 min): 0.59 ± 0.23 % dose/g organ
- Body distribution, Blood ([1]; 15 min): 6.64 ± 0.31 % dose/g organ
- Body distribution, Brain ([1]; 15 min): 0.47 ± 0.06 % dose/g organ
- Body distribution, Heart ([1]; 15 min): 3.35 ± 0.27 % dose/g organ
- Body distribution, Intestine ([1]; 15 min): 5.89 ± 0.47 % dose/g organ
- Body distribution, Kidney ([1]; 15 min): 7.00 ± 0.49 % dose/g organ
- Body distribution, Liver ([1]; 15 min): 7.66 ± 0.86 % dose/g organ
- Body distribution, Pancreas ([1]; 15 min): 3.16 ± 0.30 % dose/g organ
- Body distribution, Stomach ([1]; 15 min): 1.88 ± 0.52 % dose/g organ
- Body distribution, Blood ([1]; 30 min): 4.16 ± 2.42 % dose/g organ
- Body distribution, Brain ([1]; 30 min): 0.43 ± 0.02 % dose/g organ
- Body distribution, Heart ([1]; 30 min): 2.69 ± 0.20 % dose/g organ
- Body distribution, Intestine ([1]; 30 min): 6.26 ± 0.96 % dose/g organ
- Body distribution, Kidney ([1]; 30 min): 6.37 ± 3.04 % dose/g organ
- Body distribution, Liver ([1]; 30 min): 5.82 ± 0.64 % dose/g organ
- Body distribution, Pancreas ([1]; 30 min): 2.59 ± 0.13 % dose/g organ
- Body distribution, Stomach ([1]; 30 min): 1.86 ± 0.13 % dose/g organ
- Body distribution, Blood ([1]; 60 min): 3.67 ± 0.40 % dose/g organ
- Body distribution, Brain ([1]; 60 min): 0.33 ± 0.05 % dose/g organ
- Body distribution, Heart ([1]; 60 min): 1.87 ± 0.37 % dose/g organ
- Body distribution, Intestine ([1]; 60 min): 6.88 ± 0.53 % dose/g organ
- Body distribution, Kidney ([1]; 60 min): 3.81 ± 0.75 % dose/g organ
- Body distribution, Liver ([1]; 60 min): 4.94 ± 0.90 % dose/g organ
- Body distribution, Pancreas ([1]; 60 min): 2.10 ± 0.34 % dose/g organ
- Body distribution, Stomach ([1]; 60 min): 1.74 ± 0.83 % dose/g organ
- Body distribution, Blood ([1]; 180 min): 0.91 ± 0.55 % dose/g organ
- Body distribution, Brain ([1]; 180 min): 0.19 ± 0.08 % dose/g organ
- Body distribution, Heart ([1]; 180 min): 0.75 ± 0.34 % dose/g organ
- Body distribution, Intestine ([1]; 180 min): 4.60 ± 2.84 % dose/g organ
- Body distribution, Kidney ([1]; 180 min): 1.08 ± 0.67 % dose/g organ
- Body distribution, Liver ([1]; 180 min): 2.25 ± 1.44 % dose/g organ
- Body distribution, Pancreas ([1]; 180 min): 0.76 ± 0.35 % dose/g organ
- Body distribution, Stomach ([1]; 180 min): 1.27 ± 0.80 % dose/g organ
- Lipophilic property ([4]; octanol/PBS): lypophilic
- Distribution ratio in PBS and octanol ([4]; pH 7.0): 189.0
- Distribution ratio in PBS and octanol ([4]; pH 7.4): 193.8
- Distribution ratio in PBS and octanol ([4]; pH 8.10): 206.5
- Proportion of peak component ABGA (Swine liver esterase; 10 min): 0
- Proportion of peak component BGA (Swine liver esterase; 10 min): 87.3 ± 3.1
- Proportion of peak component I^- (Swine liver esterase; 10 min): 0.9 ± 0.5
- Proportion of peak component Others (Swine liver esterase; 10 min): 10.6 ± 2.9
- Proportion of peak component ABGA (Swine liver esterase; 60 min): 0
- Proportion of peak component BGA (Swine liver esterase; 60 min): 54.5 ± 3.7
- Proportion of peak component I^- (Swine liver esterase; 60 min): 6.5 ± 0.5
- Proportion of peak component Others (Swine liver esterase; 60 min): 33.7 ± 2.4
- Proportion of peak component ABGA (Swine liver esterase; 180 min): 0
- Proportion of peak component BGA (Swine liver esterase; 180 min): 7.2 ± 2.2
- Proportion of peak component I^- (Swine liver esterase; 180 min): 33.4 ± 1.6
- Proportion of peak component Others (Swine liver esterase; 180 min): 42.9 ± 0.4
- Enzymatic deesterification (Swine liver esterase; swine liver esterase): deesterified in a very short time to give N-m-iodobenzoyl-D-glucosamine (BGA)
